≈ marks a conversion by molar mass, not a printed value. One block for each compound: values may come before it.
How the values were obtained:
[1] = Inhibition of Leukotriene B4 production in human blood Polymorphonuclear neutrophil cells; type: functional, tissue-based
[2] = Stability of the compound in 0.01 N HCL at pH 2.0 assessed as half-life; type: physicochemical
[3] = system: PC-6; experiment: Growth inhibition of human PC-6 cells; type: functional
[4] = Growth inhibition of human PC-12 cells; type: functional, PC12
[5] = Stability of the compound in HCL solution assessed as compound hydrolysis by measuring relative rate constant by NMR analysis; type: physicochemical; details: buffer
[6] = Oral bioavailability in human; type: ADME, organism-based; details: in vivo
[7] = Stability of the compound at pH 2 assessed as half-life; type: physicochemical; details: buffer
[8] = target: Substance-P receptor (Homo sapiens, UniProt P25103); experiment: Displacement of [125I]-labeled SP from human NK-1 receptor expressed in CHO cells; type: cell-based
Sequence of Substance-P receptor (P25103 whole entry): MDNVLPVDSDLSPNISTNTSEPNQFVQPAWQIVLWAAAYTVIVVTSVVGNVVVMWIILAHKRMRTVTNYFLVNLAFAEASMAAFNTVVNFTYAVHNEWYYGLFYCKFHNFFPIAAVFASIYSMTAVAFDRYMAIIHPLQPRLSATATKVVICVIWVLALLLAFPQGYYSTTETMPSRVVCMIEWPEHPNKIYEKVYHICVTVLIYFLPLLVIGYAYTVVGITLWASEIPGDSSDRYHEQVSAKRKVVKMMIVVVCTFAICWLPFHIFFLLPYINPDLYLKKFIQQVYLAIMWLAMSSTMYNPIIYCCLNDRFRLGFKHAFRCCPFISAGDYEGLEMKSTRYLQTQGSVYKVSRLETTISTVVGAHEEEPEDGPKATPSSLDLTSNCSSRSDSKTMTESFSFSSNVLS

[9] = Stability of the compound assessed as compound hydrolysis by measuring rate constant by NMR spectroscopic analysis; type: physicochemical
[10] = Oral bioavailability in mouse; type: ADME, organism-based; details: in vivo
[11] = Dissociation constant, pKa of the compound; type: physicochemical
[12] = Chemical stability of the compound assessed as acid-catalyzed hydrolysis by measuring rate constant; type: physicochemical
[13] = Stability of the compound in 1M HCL buffer assessed as drug degradation by measuring rate constant by FRET-based assay; type: physicochemical
[14] = Oral bioavailability in dog; type: ADME, organism-based, Canis lupus familiaris; details: in vivo

- K [5]: 1.3 10^8No_unit
SMILES: c1ccc2c(c1)CCOC1(CCCCC1)O2

- K [5]: 2.6 10^8No_unit
SMILES: COC1(OC)OCCCO1

- IC50 [8]: 24 nM
SMILES: Fc1ccc([C@@H]2NCCO[C@@]23C[C@@H](c2ccccc2C(F)(F)F)CO3)cc1

- K [9]: 9.9 10^-3No_unit
SMILES: C=CC1(C)CCCCC1

- K [5]: 3.7 10^6No_unit
SMILES: CCC1(C)OCCCO1

- K [5]: 5.4 10^5No_unit
SMILES: C1CCC2(CC1)OCCO2

- K [5]: 9.3 10^4No_unit
SMILES: COC1OCCCO1

- K [5]: 1
SMILES: C1COCOC1

- Drug metabolism [12]: 35 L/mol/min
SMILES: Nc1ncnc2c1ncn2[C@H]1CC[C@@H](CO)O1

- K [5]: 2.1 10^7No_unit
SMILES: C1CCC2(CC1)OCCCO2

- K [5]: 2.1 10^4No_unit
SMILES: c1ccc2c(c1)COC1(CCCCC1)O2

- K [5]: 1 10^2No_unit
SMILES: CCC1OCCCO1

- K [5]: 2.3 10^9No_unit
SMILES: CCOC1(OCC)OCCCO1

The next lines start with the compound.

SMILES: O=C1OCc2c1cc1cc(OCc3cccc(C4(O)CC5COC(C4)O5)c3)ccc1c2-c1ccccc1 (stereo not drawn)
- IC50 [1]: 6 nM

SMILES: C[C@H]1[C@@H](CCCCC(=O)O)O[C@@H]2O[C@@]3(C)CC[C@H]4[C@H](C)CC[C@@H]1[C@@]24OO3
- half-life [2]: 165 h

SMILES: CC(=O)O[C@@]12CO[C@@H]1C[C@H](O)[C@@]1(C)C(=O)[C@H](O)C3=C(C)[C@@H](OC(=O)[C@H](O)[C@@H](NC(=O)OC(C)(C)C)c4ccccc4)C[C@@](O)([C@@H](OC(=O)c4ccccc4)[C@H]21)C3(C)C [DOCETAXEL ANHYDROUS]
- GI50 [3]: 1.48 ng/mL (≈ 1.83 nM)
- GI50 [4]: 42.2 ng/mL (≈ 52.2 nM)

SMILES: Nc1ccn([C@@H]2O[C@H](CO)[C@@H](O)[C@@H]2O)c(=O)n1 [CYTARABINE]
- bioavailability [6]: 20%

SMILES: C[C@H]1[C@@H](Cc2ccccc2)O[C@@H]2O[C@@]3(C)CC[C@H]4[C@H](C)CC[C@@H]1[C@@]24OO3
- half-life [2]: 165 h

SMILES: CC1(C)OC[C@@H](C/C=C\CCCC(=O)O)[C@@H](c2ccccc2O)O1
- half-life [7]: 56 s

SMILES: CCCC[C@H]1O[C@@H]2O[C@@]3(C)CC[C@H]4[C@H](C)CC[C@@H]([C@H]1C)[C@@]24OO3
- half-life [2]: 165 h

SMILES: C[C@H]1[C@@H](CCc2ccc(C(=O)O)cc2)O[C@@H]2O[C@@]3(C)CC[C@H]4[C@H](C)CC[C@@H]1[C@@]24OO3
- half-life [2]: 165 h

SMILES: C=C(C)CN1C[C@H](OC[C@@]23C[C@@H]4[C@H](C)CC[C@H]4[C@@]4(C=O)C[C@@H]2C=C(C(C)C)[C@@]34C(=O)O)O[C@H](C)[C@@H](OC)C1
- bioavailability [10]: 63%

SMILES: O=C(O)CCC/C=C\C[C@@H]1CO[C@H](C(F)(F)F)O[C@@H]1c1ccccc1O
- t1/2 [7]: 7 yr

SMILES: CCC(C)n1ncn(-c2ccc(N3CCN(c4ccc(OCC5COC(Cn6cncn6)(c6ccc(Cl)cc6Cl)O5)cc4)CC3)cc2)c1=O (stereo not drawn) [ITRACONAZOLE]
- pKa [11]: 3.7

SMILES: C[C@H]1[C@@H](OCc2ccc(C(=O)O)cc2)O[C@@H]2O[C@@]3(C)CC[C@H]4[C@H](C)CC[C@@H]1[C@@]24OO3
- half-life [2]: 11 h

SMILES: Nc1ncnc2c1ncn2[C@@H]1O[C@H](CO)C[C@H]1O [CORDYCEPIN]
- Drug metabolism [12]: 0.012 L/mol/min

SMILES: Nc1ncnc2c1ncn2[C@@H]1O[C@H](CO)[C@H](O)[C@H]1O
- Drug metabolism [12]: 0.29 10^-3L/mol/min

SMILES: CC(=O)O[C@@]12CO[C@@H]1CC[C@@]1(C)[C@@H]3O[C@H](CN4CCOCC4)O[C@@H]3C3=C(C)[C@@H](OC(=O)[C@H](O)[C@@H](NC(=O)OC(C)(C)C)c4ncccc4F)C[C@@](O)([C@@H](OC(=O)c4ccccc4)[C@@H]12)C3(C)C
- GI50 [3]: 0.29 ng/mL (≈ 0.314 nM)
- GI50 [4]: 0.14 ng/mL (≈ 0.152 nM)

SMILES: COc1cc(/N=N/c2ccc([N+](=O)[O-])cc2)c(OC)cc1/N=N/c1ccc(N(C)CCCC(=O)NCCSC2CC(=O)N(CC3OCC(C(=O)NCCCNC(=O)c4ccc(C(=O)[O-])c(-c5c6ccc(=[N+](C)C)cc-6oc6cc(N(C)C)ccc56)c4)O3)C2=O)cc1 (stereo not drawn)
- K [13]: 1.59 10^-6/s

SMILES: CC(=O)O[C@H]1C(=O)[C@@]2(C)[C@H]([C@H](OC(=O)c3ccccc3)[C@]3(O)C[C@H](OC(=O)[C@H](O)[C@@H](NC(=O)c4ccccc4)c4ccccc4)C(C)=C1C3(C)C)[C@]1(OC(C)=O)CO[C@@H]1C[C@@H]2O [PACLITAXEL]
- GI50 [3]: 1.27 ng/mL (≈ 1.49 nM)
- GI50 [4]: 539 ng/mL (≈ 631 nM)

SMILES: Nc1nc2c(ncn2[C@H]2C=C[C@@H](CO)O2)c(=O)[nH]1
- half-life [7]: < 120 s

SMILES: Nc1ncnc2c1ncn2[C@H]1C[C@H](O)[C@@H](CO)O1 [DEOXYADENOSINE]
- Drug metabolism [12]: 0.96 L/mol/min

SMILES: COc1cc(/N=N/c2ccc([N+](=O)[O-])cc2)c(OC)cc1/N=N/c1ccc(N(C)CCCC(=O)NCCSC2CC(=O)N(CCC3OCC(C(=O)NCCCNC(=O)c4ccc(-c5c6ccc(=[N+](C)C)cc-6oc6cc(N(C)C)ccc56)c(C(=O)[O-])c4)CO3)C2=O)cc1 (stereo not drawn)
- K [13]: 2.28 10^-6/s

SMILES: C[C@@H](c1c[nH]c2ccccc12)[C@H](C(=O)NC[C@H]1OC[C@H](N)CO1)N1CCN(CCCc2ccccc2)C1=O
- bioavailability [14]: 19%

SMILES: Nc1nc(Cl)nc2c1ncn2[C@H]1C[C@H](O)[C@@H](CO)O1 [CLADRIBINE]
- bioavailability [6]: 40%
